These results are taken from patent US11466016B2, “Pharmaceutical compounds” (priority 2018, dated 2022).

Molecules are shown by their SMILES. Counter-ions that a name gives are not always drawn.

For one assay, the target named is SHP2 (Homo sapiens (Human), UniProt Q06124). Nature of the assay: SHP2 Biochemical Assay (DiFMUP conversion, pIRS1 activating peptide).
SHP2, sequence (Q06124 whole entry): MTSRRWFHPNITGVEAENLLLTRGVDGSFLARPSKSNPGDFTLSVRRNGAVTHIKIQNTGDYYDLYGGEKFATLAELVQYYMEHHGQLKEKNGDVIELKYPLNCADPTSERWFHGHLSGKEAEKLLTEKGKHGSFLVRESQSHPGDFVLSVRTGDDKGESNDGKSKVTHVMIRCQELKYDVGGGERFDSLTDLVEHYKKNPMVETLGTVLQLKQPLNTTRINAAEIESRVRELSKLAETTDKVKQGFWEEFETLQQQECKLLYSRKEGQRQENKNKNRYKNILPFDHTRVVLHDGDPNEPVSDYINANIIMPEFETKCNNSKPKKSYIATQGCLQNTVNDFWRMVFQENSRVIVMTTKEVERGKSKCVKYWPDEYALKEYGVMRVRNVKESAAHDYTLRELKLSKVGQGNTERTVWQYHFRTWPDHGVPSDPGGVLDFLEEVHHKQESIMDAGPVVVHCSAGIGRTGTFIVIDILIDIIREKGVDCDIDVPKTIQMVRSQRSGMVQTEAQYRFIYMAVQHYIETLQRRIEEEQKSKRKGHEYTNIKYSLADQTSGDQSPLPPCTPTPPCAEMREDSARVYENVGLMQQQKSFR
Conditions: not given
On to `COc1cnc2ccc(-c3n[nH]c4nc(N5[C@@H]6CC[C@H]5[C@@H](F)[C@@H](N)C6)c(C)nc34)c(Cl)c2n1` [Example 121, (1S,2S,3S,5R)-8-[3-(5-chloro-3-methoxyquinoxalin-6-yl)-5-methyl-1H-pyrazolo[3,4-b]pyrazin-6-yl]-2-fluoro-8-azabicyclo[3.2.1]octan-3-amine], for which the IC50 turned out to be 14 nM.

The molecule `Cc1nc2ccc(-c3n[nH]c4nc(N5[C@@H]6CC[C@H]5C[C@@H](N)C6)c(CO)nc34)c(Cl)c2s1` [Example 128, {6-[endo-3-amino-8-azabicyclo[3.2.1]octan-8-yl]-3-(7-chloro-2-methyl-1,3-benzothiazol-6-yl)-1H-pyrazolo[3,4-b]pyrazin-5-yl}methanol] showed an IC50 of 7.3 nM.

`CN(C)c1cnc2ccc(-c3n[nH]c4nc(N5[C@@H]6CC[C@H]5[C@@H](F)[C@@H](N)C6)c(CO)nc34)c(Cl)c2n1` [Example 130, {6-[(1S,2S,3S,5R)-3-amino-2-fluoro-8-azabicyclo[3.2.1]octan-8-yl]-3-[5-chloro-3-(dimethylamino)quinoxalin-6-yl]-1H-pyrazolo[3,4-b]pyrazin-5-yl}methanol] returned an IC50 of 9.5 nM.

Take `CN(C)c1cnc2ccc(-c3n[nH]c4nc(N5[C@@H]6CC[C@H]5C[C@@](C)(N)C6)c(CO)nc34)c(Cl)c2n1` [Example 131, {6-[endo-3-amino-3-methyl-8-azabicyclo[3.2.1]octan-8-yl]-3-[5-chloro-3-(dimethylamino)quinoxalin-6-yl]-1H-pyrazolo[3,4-b]pyrazin-5-yl}methanol]: half-maximal inhibition (IC50) required 8.8 nM.

Still in this assay, the particulars now being: DiFMUP substrate, 0.25 μM pIRS1 peptide, 30 min pre-incubation; average where more than one data point; read-out: SHP2 (IC50).
In the case of `Cn1nc2ccc(-c3n[nH]c4nc(N5[C@@H]6CC[C@H]5C[C@@](C)(N)C6)c(CO)nc34)c(Cl)c2c1Cl` [Example 116, {6-[endo-3-amino-3-methyl-8-azabicyclo[3.2.1]octan-8-yl]-3-(3,4-dichloro-2-methyl-2H-indazol-5-yl)-1H-pyrazolo[3,4-b]pyrazin-5-yl}methanol], the concentration for half-maximal inhibition (IC50) amounted to 7.5 nM.

As to `CN(C)c1cnc2ccc(-c3n[nH]c4nc(N5[C@H]6CC[C@@H]5[C@@H](F)[C@@H](N)C6)c(CO)nc34)c(Cl)c2n1` [Example 118, {6-[(1R,2S,3S,5S)-3-amino-2-fluoro-8-azabicyclo[3.2.1]octan-8-yl]-3-[5-chloro-3-(dimethylamino)quinoxalin-6-yl]-1H-pyrazolo[3,4-b]pyrazin-5-yl}methanol], the IC50 came to 5.3 nM.

With `COc1cnc2ccc(-c3n[nH]c4nc(N5[C@@H]6CC[C@H]5CNC6)c(C)nc34)c(Cl)c2n1` [Example 119, 8-Chloro-7-(6-{3,8-diazabicyclo[3.2.1]octan-8-yl}-5-methyl-1H-pyrazolo[3,4-b]pyrazin-3-yl)-2-methoxyquinoxaline], the half-maximal inhibitory concentration (IC50) was determined as 14 nM.

For the molecule `COc1cnc2ccc(-c3n[nH]c4nc(N5CCC(C)(N)CC5)c(C)nc34)c(Cl)c2n1` [Example 120, 1-[3-(5-chloro-3-methoxyquinoxalin-6-yl)-5-methyl-1H-pyrazolo[3,4-b]pyrazin-6-yl]-4-methylpiperidin-4-amine], the IC50 came to 25 nM.

Regarding `Cn1nc2ccc(-c3c[nH]c4nc(N5[C@H]6CC[C@@H]5[C@@H](F)[C@@H](N)C6)c(CO)nc34)c(Cl)c2c1Cl` [Example 122, {3-[(1R,2S,3S,5S)-3-amino-2-fluoro-8-azabicyclo[3.2.1]octan-8-yl]-7-(3,4-dichloro-2-methyl-2H-indazol-5-yl)-5H-pyrrolo[2,3-b]pyrazin-2-yl}methanol], the IC50 worked out at 5.2 nM.

As to `Cc1nc2c(-c3ccc4nn(C)c(C#N)c4c3Cl)n[nH]c2nc1N1[C@H]2CC[C@@H]1[C@@H](F)[C@@H](N)C2` [Example 124, 5-{6-[(1R,2S,3S,5S)-3-amino-2-fluoro-8-azabicyclo[3.2.1]octan-8-yl]-5-methyl-1H-pyrazolo[3,4-b]pyrazin-3-yl}-4-chloro-2-methyl-2H-indazole-3-carbonitrile], the IC50 turned out to be 8.1 nM.

Consider `Cn1nc2ccc(-c3n[nH]c4nc(N5[C@@H]6CCC[C@H]5CNC6)c(CO)nc34)c(Cl)c2c1Cl` [Example 125], for which the IC50 was 7.1 nM.

As to `CCn1nc2ccc(-c3n[nH]c4nc(N5[C@H]6CC[C@@H]5[C@@H](F)[C@@H](N)C6)c(CO)nc34)c(Cl)c2c1C#N` [Example 126, 5-{6-[(1R,2S,3S,5S)-3-amino-2-fluoro-8-azabicyclo[3.2.1]octan-8-yl]-5-(hydroxymethyl)-1H-pyrazolo[3,4-b]pyrazin-3-yl}-4-chloro-2-ethyl-2H-indazole-3-carbonitrile], the IC50 was found to be 9.7 nM.

For `CCn1nc2ccc(-c3n[nH]c4nc(N5[C@H]6CC[C@@H]5[C@@H](F)[C@@H](N)C6)c(C)nc34)c(Cl)c2c1C#N` [Example 127, 5-{6-[(1R,2S,3S,5S)-3-amino-2-fluoro-8-azabicyclo[3.2.1]octan-8-yl]-5-methyl-1H-pyrazolo[3,4-b]pyrazin-3-yl}-4-chloro-2-ethyl-2H-indazole-3-carbonitrile, hydrochloride salt], the IC50 worked out at 14 nM.

For `Cn1nc2ccc(-c3n[nH]c4nc(N5[C@H]6CC[C@@H]5[C@@H](F)[C@@H](N)C6)c(CO)nc34)c(Cl)c2c1C#N` [Example 129, 5-{6-[(1R,2S,3S,5S)-3-amino-2-fluoro-8-azabicyclo[3.2.1]octan-8-yl]-5-(hydroxymethyl)-1H-pyrazolo[3,4-b]pyrazin-3-yl}-4-chloro-2-methyl-2H-indazole-3-carbonitrile], the IC50 was 5 nM.

Consider `Cc1nc2c(-c3ccc4nc(CO)sc4c3Cl)n[nH]c2nc1N1[C@H]2CC[C@@H]1[C@@H](F)[C@@H](N)C2` [Example 132, (6-{6-[(1R,2S,3S,5S)-3-amino-2-fluoro-8-azabicyclo[3.2.1]octan-8-yl]-5-methyl-1H-pyrazolo[3,4-b]pyrazin-3-yl}-7-chloro-1,3-benzothiazol-2-yl)methanol, hydrochloride], for which the IC50 is 11 nM.

As to `CN(C)c1cnc2ccc(-c3n[nH]c4nc(N5[C@@H]6CC[C@H]5C[C@@H](N)C6)c(CO)nc34)c(Cl)c2n1` [Example 133, {6-[endo-3-amino-8-azabicyclo[3.2.1]octan-8-yl]-3-[5-chloro-3-(dimethylamino)quinoxalin-6-yl]-1H-pyrazolo[3,4-b]pyrazin-5-yl}methanol], the IC50 was 6 nM.

Regarding `COc1cnc2ccc(-c3n[nH]c4nc(N5[C@@H]6CC[C@H]5C[C@@](C)(N)C6)c(CO)nc34)c(Cl)c2n1` [Example 134, {6-[endo-3-amino-3-methyl-8-azabicyclo[3.2.1]octan-8-yl]-3-(5-chloro-3-methoxyquinoxalin-6-yl)-1H-pyrazolo[3,4-b]pyrazin-5-yl}methanol], the IC50 turned out to be 10 nM.

Regarding `COc1cnc2ccc(-c3n[nH]c4nc(N5[C@@H]6CC[C@H]5C[C@@H](N)C6)c(C)nc34)c(Cl)c2n1` [Example 135, endo-8-[3-(5-chloro-3-methoxyquinoxalin-6-yl)-5-methyl-1H-pyrazolo[3,4-b]pyrazin-6-yl]-8-azabicyclo[3.2.1]octan-3-amine], the IC50 was found to be 16 nM.

`Cc1nc2c(-c3ccc4ncc(N(C)C)nc4c3Cl)n[nH]c2nc1N1[C@@H]2CC[C@H]1C[C@@H](N)C2` [Example 136, 7-{6-[endo-3-amino-8-azabicyclo[3.2.1]octan-8-yl]-5-methyl-1H-pyrazolo[3,4-b]pyrazin-3-yl}-8-chloro-N,N-dimethylquinoxalin-2-amine]: the IC50 turned out to be 9 nM.

For the molecule `Cc1nc2c(-c3ccc4ncc(N(C)C)nc4c3Cl)n[nH]c2nc1N1C2CCC1CNC2` [Example 137, 8-Chloro-7-(6-{3,8-diazabicyclo[3.2.1]octan-8-yl}-5-methyl-1H-pyrazolo[3,4-b]pyrazin-3-yl)-N,N-dimethylquinoxalin-2-amine], the IC50 turned out to be 21 nM.

Consider `CCOc1cnc2ccc(-c3n[nH]c4nc(N5[C@H]6CC[C@@H]5[C@@H](F)[C@@H](N)C6)c(CO)nc34)c(Cl)c2n1` [Example 138, {6-[(1R,2S,3S,5S)-3-amino-2-fluoro-8-azabicyclo[3.2.1]octan-8-yl]-3-(5-chloro-3-ethoxyquinoxalin-6-yl)-1H-pyrazolo[3,4-b]pyrazin-5-yl}methanol], for which the IC50 turned out to be 13 nM.

`CCOc1cnc2ccc(-c3n[nH]c4nc(N5[C@H]6CC[C@@H]5[C@@H](F)[C@@H](N)C6)c(C)nc34)c(Cl)c2n1` [Example 139, (1R,2S,3S,5S)-8-[3-(5-chloro-3-ethoxyquinoxalin-6-yl)-5-methyl-1H-pyrazolo[3,4-b]pyrazin-6-yl]-2-fluoro-8-azabicyclo[3.2.1]octan-3-amine]: the IC50 amounted to 22 nM.

On to `Cc1nc2ccc(-c3n[nH]c4nc(N5[C@@H]6CC[C@H]5[C@@H](F)[C@@H](N)C6)c(CO)nc34)c(Cl)c2s1` [Example 140, {6-[(1S,2S,3S,5R)-3-amino-2-fluoro-8-azabicyclo[3.2.1]octan-8-yl]-3-(7-chloro-2-methyl-1,3-benzothiazol-6-yl)-1H-pyrazolo[3,4-b]pyrazin-5-yl}methanol], for which the IC50 came to 7.7 nM.

Turning to `Cc1c(-c2n[nH]c3nc(N4[C@@H]5CC[C@H]4[C@@H](F)[C@@H](N)C5)c(CO)nc23)ccc2nn(C)c(Cl)c12` [Example 141, {6-[(1S,2S,3S,5R)-3-amino-2-fluoro-8-azabicyclo[3.2.1]octan-8-yl]-3-(3-chloro-2,4-dimethyl-2H-indazol-5-yl)-1H-pyrazolo[3,4-b]pyrazin-5-yl}methanol], the IC50 was 13 nM.

Regarding `Cc1c(-c2n[nH]c3nc(N4[C@@H]5CC[C@H]4C[C@@H](N)C5)c(CO)nc23)ccc2nn(C)c(Cl)c12` [Example 142, {6-[endo-3-amino-8-azabicyclo[3.2.1]octan-8-yl]-3-(3-chloro-2,4-dimethyl-2H-indazol-5-yl)-1H-pyrazolo[3,4-b]pyrazin-5-yl}methanol], the half-maximal inhibitory concentration (IC50) came to 13 nM.

Turning to `COCc1nc2ccc(-c3n[nH]c4nc(N5[C@H]6CC[C@@H]5[C@@H](F)[C@@H](N)C6)c(CO)nc34)c(Cl)c2s1` [Example 143, {6-[(1R,2S,3S,5S)-3-amino-2-fluoro-8-azabicyclo[3.2.1]octan-8-yl]-3-[7-chloro-2-(methoxymethyl)-1,3-benzothiazol-6-yl]-1H-pyrazolo[3,4-b]pyrazin-5-yl}methanol], the IC50 is 6.1 nM.

For orientation: IC50 means the concentration at which inhibition is half-maximal.
